Reference: patent US8673949B2 (Bristol-Myers Squibb Company, priority 2008, dated 2014)
Several values for one entry are separate records, joined by “and”; a condition that tells them apart may be missing. Identical values can stand only once. Like-named read-outs stand apart in the source and are kept apart here. One block for each compound: values may come before it.

What was measured:
[1] = Plasma, brain and liver levels after oral gavage in C57BL/6 mice; assay type: in vivo, mouse; conditions: C57BL/6 mice; for Brain/Liver Ratio / Kp at 1 h / concentration at 1 h / concentration at 1 hr: 1 hr; for Kp at 1 h: brain and plasma
Text: Below, we first report the experimental detail for preparation and isolation of Compound III, and then the biological, in vivo data is described.

[2] = bolus IV 5 mpk, cited from earlier work; for Brain conc / Plasma conc: WO 03/074053 data converted to nM; for Brain-to-plasma Ratio: WO 03/074053 data
[3] = Plasma, brain and liver levels after bolus IV administration in nude mice
[4] = mouse, in vivo, iv; for Brain-to-Liver Ratio: nude, 12 mg/kg
[5] = in vivo; conditions: nude, mouse, iv
[6] = tested on: PrP T44 Tau transgenic mice; conditions: treatment for 3 months; cited from earlier work
[7] = tested on: paclitaxel-induced peripheral neuropathy; conditions: rats; cited from earlier work

Compound: CCC[C@H]1C(=O)C(C)(C)[C@@H](O)CC(=O)O[C@H](/C(C)=C/c2csc(C)n2)CC=C(C)CCC[C@H](C)[C@@H]1O (single isomer, unassigned) [Compound III, 4,8-dihydroxy-16-(1-methyl-2-(2-methyl-4-thiazolyl)-ethenyl)-1-oxa-7-(1-propyl)-5,5,9,13-tetramethyl-cyclohexadec-13-ene-2,6-dione]
brain retention ([1]; oral 10 and 35 mpk, no measureable brain levels at 24 h): poor brain retention
brain half life compared with epothilone D ([1]; oral 35 mpk, FIG. 9): significantly shorter than epothilone D
Brain/Liver Ratio ([1]; oral gavage 10 mpk): 0.1
Brain conc ([1]; oral gavage 10 mpk, 5 hr): (3.7 nM)
Brain conc ([1]; oral gavage 10 mpk, 7 hr): (3.7 nM)
Brain conc ([1]; oral gavage 10 mpk, 24 hr): (3.7 nM)
Plasma conc ([1]; oral gavage 10 mpk, 24 hr): (0.2 nM)
Brain/Liver Ratio ([1]; oral gavage 35 mpk): 0.4
Brain conc ([1]; oral gavage 35 mpk, 24 hr): <LLQ
Kp at 1 h ([1]; mouse, 10 mg/kg, oral gavage 10 mpk, read-out: Brain/Plasma Ratio): 0.8
Kp at 1 h ([1]; mouse, 35 mg/kg, oral gavage 35 mpk, read-out: Brain/Plasma Ratio): 2.3
concentration at 1 h ([1]; mouse, brain, 10 mg/kg, oral gavage 10 mpk, read-out: Brain conc): 9.6 nM
concentration at 1 hr ([1]; mouse, brain, 35 mg/kg, oral gavage 35 mpk, read-out: Brain conc): 67.7 nM
concentration at 5 hr ([1]; mouse, brain, 35 mg/kg, oral gavage 35 mpk, 5 hr, read-out: Brain conc): 4.6 nM
Kp at 5 h ([1]; mouse, brain/plasma, 35 mg/kg, oral gavage 35 mpk, 5 hr, read-out: Brain/Plasma Ratio): 1.4
concentration at 1 h ([1]; mouse, plasma, 10 mg/kg, oral gavage 10 mpk, read-out: Plasma conc): 12.3 nM
concentration at 5 hr ([1]; mouse, plasma, 10 mg/kg, oral gavage 10 mpk, 5 hr, read-out: Plasma conc): 1.3 nM
concentration at 7 hr ([1]; mouse, plasma, 10 mg/kg, oral gavage 10 mpk, 7 hr, read-out: Plasma conc): 1.2 nM
concentration at 1 hr ([1]; mouse, plasma, 35 mg/kg, oral gavage 35 mpk, read-out: Plasma conc): 47.7 nM
concentration at 5 hr ([1]; mouse, plasma, 35 mg/kg, oral gavage 35 mpk, 5 hr, read-out: Plasma conc): 3 nM
concentration at 24 hr ([1]; mouse, plasma, 35 mg/kg, oral gavage 35 mpk, 24 hr, read-out: Plasma conc): 0.7 nM
Brain conc ([2]; 0.17 hr): 580 nM
Plasma conc ([2]; 0.17 hr): 1540 nM
Brain-to-plasma Ratio ([2]; 0.17 hr): 0.4
Brain conc ([2]; 0.67 hr): 1150 nM
Plasma conc ([2]; 0.67 hr): 580 nM
Brain-to-plasma Ratio ([2]; 0.67 hr): 2
Brain-to-plasma Ratio ([2]; […]): 1.3

Compound: C/C(=C\c1csc(CN)n1)[C@@H]1C[C@@H]2O[C@]2(C)CCC[C@H](C)[C@H](O)[C@@H](C)C(=O)C(C)(C)[C@@H](O)CC(=O)O1 [Compound II]
Brain-to-Liver Ratio ([3]; bolus IV 1 mpk, 6 hr): 0.01
Brain-to-Liver Ratio ([3]; bolus IV 1 mpk, 24 hr): 0.02
brain levels relative to peripheral tissue (ratio of brain-to-liver compound levels) ([3]; bolus IV, particularly at later times): modest brain levels relative to peripheral tissue
concentration at 6 h ([3]; nude, mouse, in vivo, iv, 1 mg/kg, Brain conc, bolus IV 1 mpk, 6 hr): 6.8 nM
concentration at 24 h ([3]; nude, mouse, in vivo, iv, 1 mg/kg, Brain conc, bolus IV 1 mpk, 24 hr): 1.3 nM
Kp at 6 h ([3]; nude, mouse, in vivo, iv, 1 mg/kg, Brain-to-plasma Ratio, bolus IV 1 mpk, 6 hr): 2.1
Kp at 24 h ([3]; nude, mouse, in vivo, iv, 1 mg/kg, Brain-to-plasma Ratio, bolus IV 1 mpk, 24 hr): 1.2
concentration at 6 h ([3]; nude, mouse, in vivo, iv, 1 mg/kg, Plasma conc, bolus IV 1 mpk, 6 hr): 3 nM
concentration at 24 h ([3]; nude, mouse, in vivo, iv, 1 mg/kg, Plasma conc, bolus IV 1 mpk, 24 hr): 1 nM

Brain-to-Liver Ratio ([4]; 1 h): 0.07
Brain-to-Liver Ratio ([4]; 2 h): 0.11
Brain-to-Liver Ratio ([4]; 6 h): 0.30
Brain-to-Liver Ratio ([4]; 24 h): 1.2
Kp at 1 h ([5]; 12 mg/kg): 0.73
Kp at 2 h ([5]; 12 mg/kg): 2.1
Kp at 6 h ([5]; 12 mg/kg): 7
Kp at 24 h ([5]; 12 mg/kg): 30
Kp at […] ([5]; 12 mg/kg): 0.05 and 0.16
concentration at 1 h ([5]; 12 mg/kg, Brain conc): 284 nM
concentration at 2 h ([5]; 12 mg/kg, Brain conc): 360 nM
concentration at 6 h ([5]; 12 mg/kg, Brain conc): 371 nM
concentration at 24 h ([5]; 12 mg/kg, Brain conc): 236 nM
concentration at 1 h ([5]; 12 mg/kg, Plasma conc): 390 nM
concentration at 2 h ([5]; 12 mg/kg, Plasma conc): 171 nM
concentration at 6 h ([5]; 12 mg/kg, Plasma conc): 53 nM
concentration at 24 h ([5]; 12 mg/kg, Plasma conc): 8 nM
Compound: C/C(=C\c1csc(C)n1)[C@@H]1C[C@@H]2O[C@]2(C)CCC[C@H](C)[C@H](O)[C@@H](C)C(=O)C(C)(C)[C@@H](O)CC(=O)N1 [Ixabepilone, (1S,3S,7S,10R,11S,12S,16R)-7,11-dihydroxy-8,8,10,12,16-pentamethyl-3-[(1E)-1-methyl-2-(2-methyl-4-thiazolyl)ethenyl]-17-oxa-4-azabicyclo[14.1.0]heptadecane-5,9-dione]
brain levels relative to peripheral tissue (ratio of brain-to-liver compound levels) [4]: modest brain levels relative to peripheral tissue

Compound: CC(=O)O[C@H]1C(=O)[C@@]2(C)[C@H]([C@H](OC(=O)c3ccccc3)[C@]3(O)C[C@H](OC(=O)[C@H](O)[C@@H](NC(=O)c4ccccc4)c4ccccc4)C(C)=C1C3(C)C)[C@]1(OC(C)=O)CO[C@@H]1C[C@@H]2O [Paclitaxel, paclitaxel]
brain levels ([4]; 4 mg/kg): low
Tau pathology (spheroids) [6]: unaffected
microtubule numbers and axonal transport in the ventral roots of the spinal cord [6]: increased microtubule numbers and axonal transport
motor dysfunction [6]: reduced motor dysfunction
concentration at 1 h ([5]; 4 mg/kg, Brain conc): 47 nM
concentration at 6 h ([5]; 4 mg/kg, Brain conc): 16 nM
concentration at 24 h ([5]; 4 mg/kg, Brain conc): 15 nM
Kp at 1 h ([5]; 4 mg/kg, Brain-to-plasma Ratio): 0.1
Kp at 6 h ([5]; 4 mg/kg, Brain-to-plasma Ratio): 0.37
Kp at 24 h ([5]; 4 mg/kg, Brain-to-plasma Ratio): 1.25
concentration at 1 h ([5]; 4 mg/kg, Plasma conc): 447 nM
concentration at 6 h ([5]; 4 mg/kg, Plasma conc): 43 nM
concentration at 24 h ([5]; 4 mg/kg, Plasma conc): 12 nM

Compound: NAP: a peptide of sequence NAPVSIPQ
protection against paclitaxel-induced peripheral neuropathy [7]: able to protect against paclitaxel-induced peripheral neuropathy
